Assay results: patent US10016383B2, “Inhibitors of metallo-β-lactamase-enzymes” (McMaster University, priority 2013, dated 2018)
“Also recorded” adds a separate entry of the source.

Key:
ACE from rabbit lung = target: T1, ACE from rabbit lung (Oryctolagus cuniculus, UniProt P12822); assay: IC50 enzyme inhibition assay, FAPGG reporter substrate; format: biochemical; conditions: concentration-response assays
T1 construct: as well as ACE from rabbit lung; from tissue; host or cells: rabbit lung
Description: Enzyme (NDM-1, 5 nM; VIM-2, 500 pM; CTX-M-15, 500 pM; KPC-2, 5 nM; OXA-48, 1 nM; TEM-1, 100 pM; ACE, 50 nM) was mixed with 30 μM nitrocefin (100 μM nitrocefin for TEM-1; 250 µM furanacryloyl-L-phenylalanylglycylglycine [FAPGG] for ACE^24) after a 5-10 minute preincubation with AM-A. Metallo-enzymes were supplemented with 10 μM ZnSO4. Assays were read in 96-well microplate format at 490 nm using a Spectramax reader (Molecular Devices) at 30-37° C.
E. coli strain BW25113 was modified by deletion of the bamB and tolC genes so as to increase permeability to and reduce efflux of small molecules. This strain was then further modified by the single-copy chromosomal insertion of the blaNDM-1 gene under control of the pLac promoter. Microbial natural product extracts were screened against this strain in the presence of sublethal ¼ MIC meropenem. AM-A was purified from a hit extract and its structure elucidated by NMR, mass spectrometry and polarimetry. IC50 values for AM-A were determined using nitrocefin (for MBLs and Ser BLs) and furanacryloyl-L-phenylalanylglycylglycine (for ACE)^21 as reporter substrates against the following purified enzymes: MBLs IMP-7, VIM-2, and NDM-1; SBLs CTX-M-15, KPC-2, OXA-48, and TEM-1; as well as ACE from rabbit lung. […] FIC values were determined using standard methods^27. […]

AIM-expressing isolates = assay: Clinical isolate screening with meropenem; format: cell-based, Enterobacteriaceae, Acinetobacter spp. and Pseudomonas spp.; conditions: meropenem 2 μg/ml, AM-A 8 μg/ml
Description: (§1) Various concentrations of AM-A were chosen in combination with 2 mg/L of meropenem which is the EUCAST breakpoint for resistance^28. Synergistic properties of the two compounds were examined in a micro-titre tray using BHI as the growth medium (Oxford Science Park, England) and an inoculum of 0.5 MacFarland. All plates contained the control strains Escherichia coli ATCC 25922 and Pseudomonas aeruginosa ATCC 27853. Overall, 226 non-clonal clinical isolates (Enterobacteriaceae, P. aeruginosa and Acinetobacter spp.) were challenged containing one of the following MBLs: SPM-1 (n=17), AIM-1 (n=8), NDM-1 (n=67), VIM-type (n=114) or IMP-type (n=20). […] Plates were incubated at 37° C. and read after 18 hrs.

[1] = system: SPM-1-expressing isolates; assay: Clinical isolate screening with meropenem; format: cell-based, Enterobacteriaceae, Acinetobacter spp. and Pseudomonas spp.; conditions: meropenem 2 μg/ml, AM-A 8 μg/ml
Description: as §1

IMP-expressing isolates = assay: Clinical isolate screening with meropenem; format: cell-based, Enterobacteriaceae, Acinetobacter spp. and Pseudomonas spp.; conditions: meropenem 2 μg/ml, AM-A 8 μg/ml
Description: as §1

VIM positive isolates = assay: Clinical isolate screening with meropenem; format: cell-based, Enterobacteriaceae, Acinetobacter spp. and Pseudomonas spp.; conditions: AM-A 8 μg/ml, meropenem 2 μg/ml
Description: as §1

NDM positives isolates = assay: Clinical isolate screening with meropenem; format: cell-based, Enterobacteriaceae, Acinetobacter spp. and Pseudomonas spp.; conditions: AM-A 8 μg/ml, meropenem 2 μg/ml
Description: as §1

[2] = in vivo; cited from earlier work
[3] = system: panel of 16 clinical CRE isolates; assay: FIC index determination; format: cell-based, Enterobacteriaceae; conditions: meropenem and AM-A combinations; ≤0.5 defined as synergistic
Description: FIC values were determined by standard methods^27 setting up checkerboards with 8 concentrations of each meropenem and AM-A in serial ½ dilutions. Experiments were done in duplicate and the mean used for calculation. The MIC for each compound was the lowest concentration of compound showing no growth. The FIC for each compound was calculated as the concentration of the compound in the presence of co-compound for a well showing no growth, divided by the MIC for that compound. The FIC index is the sum of the two FICs.

T1 sequence (P12822 34-1310): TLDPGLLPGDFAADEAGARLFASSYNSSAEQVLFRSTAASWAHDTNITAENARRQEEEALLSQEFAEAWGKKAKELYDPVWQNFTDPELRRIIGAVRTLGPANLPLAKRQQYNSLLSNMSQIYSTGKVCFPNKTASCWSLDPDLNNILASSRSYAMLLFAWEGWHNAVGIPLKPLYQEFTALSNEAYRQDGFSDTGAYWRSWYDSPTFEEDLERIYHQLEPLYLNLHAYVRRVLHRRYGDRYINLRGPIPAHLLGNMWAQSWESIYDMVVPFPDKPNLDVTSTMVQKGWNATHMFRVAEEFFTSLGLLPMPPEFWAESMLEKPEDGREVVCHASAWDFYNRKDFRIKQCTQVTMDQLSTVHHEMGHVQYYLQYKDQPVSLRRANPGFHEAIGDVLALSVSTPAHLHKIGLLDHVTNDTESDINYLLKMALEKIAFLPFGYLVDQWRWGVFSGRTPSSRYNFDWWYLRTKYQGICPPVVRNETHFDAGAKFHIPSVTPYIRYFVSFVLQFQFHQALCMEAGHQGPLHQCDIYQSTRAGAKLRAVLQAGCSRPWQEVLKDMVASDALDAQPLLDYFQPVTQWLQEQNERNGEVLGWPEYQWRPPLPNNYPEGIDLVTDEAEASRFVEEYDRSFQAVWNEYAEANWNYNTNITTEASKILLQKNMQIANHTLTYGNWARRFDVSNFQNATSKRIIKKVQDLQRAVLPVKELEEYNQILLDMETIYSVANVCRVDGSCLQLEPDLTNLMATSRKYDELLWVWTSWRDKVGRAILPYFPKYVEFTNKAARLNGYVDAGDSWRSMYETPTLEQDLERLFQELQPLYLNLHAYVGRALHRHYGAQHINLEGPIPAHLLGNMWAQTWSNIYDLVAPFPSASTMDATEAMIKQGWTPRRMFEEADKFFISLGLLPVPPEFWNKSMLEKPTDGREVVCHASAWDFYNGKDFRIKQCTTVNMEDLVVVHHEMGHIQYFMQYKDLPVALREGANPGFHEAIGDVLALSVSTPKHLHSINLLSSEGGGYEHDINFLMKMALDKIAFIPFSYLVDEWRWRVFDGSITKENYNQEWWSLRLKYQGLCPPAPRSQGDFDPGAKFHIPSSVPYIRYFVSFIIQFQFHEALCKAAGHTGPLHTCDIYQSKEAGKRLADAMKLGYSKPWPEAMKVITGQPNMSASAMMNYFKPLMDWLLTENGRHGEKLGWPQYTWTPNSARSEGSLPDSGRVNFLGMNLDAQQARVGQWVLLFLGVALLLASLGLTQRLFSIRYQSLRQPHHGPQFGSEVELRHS

N[C@H](CN[C@H](CN[C@@H](CC(=O)O)C(=O)O)C(=O)O)C(=O)O [AM-A, aspergillomarasmine A]
reduction of activity of rabbit lung ACE (ACE from rabbit lung): ~35%
potentiation of meropenem / susceptibility to combination (AIM-expressing isolates): very little potentiation; also recorded: remained resistant
potentiation of meropenem / susceptibility to combination [1]: very little potentiation; also recorded: remained resistant
potentiation of meropenem / susceptibility to combination (IMP-expressing isolates): very little potentiation; also recorded: remained resistant
isolates with meropenem sensitivity restored (VIM positive isolates): 90%
susceptibility to meropenem/AM-A combination (VIM positive isolates): highly susceptible
isolates with meropenem sensitivity restored (NDM positives isolates): 88%
susceptibility to meropenem/AM-A combination (NDM positives isolates): highly susceptible
effect on mean atrial blood pressure [2]: no effect
Fractional inhibitory concentration (FIC) index [3]: < 0.1
